Results on 20 molecules are retold here after US6221874A, “Method of treating bone loss by stimulation of calcitonin” (American Home Products Corporation, priority 1999, dated 2001).

Assay [1] concerns calcitonin secreted by the C1-3 cell line (TT medullary thyroid carcinoma). The experiment in a line: Calcitonin Secretion/RIA Assay. The format is cell-based. Particulars: Homo sapiens, C13, C1-3 cells, active if Secretion Ratio>2.5. Here is the method: Calcitonin Secretion/RIA Assay Protocol
This assay was used to determine the ability of a compound to increase the amount of calcitonin secreted by the C1-3 cell line.
Cell Line: C1-3 (Parent Cell Line: TT-medullary thyroid carcinoma),
1. Glass tubes were labeled to include Total Count (TC), Nonspecific Binding (NSB), Maximum Binding (Bo), Standards, Controls and Patient Sera in duplicate.
2. […] of Standard Zero (Reagent D) was added to tubes 3 through 6 (NSB and Bo).
3. […] of Standards* (Reagents E-1) was added to tubes 7-16 as follows:
4. […] of Patient Serum 1 was added to tubes 21 and 22, Patient Serum 2 was added to tubes 23 and 24, etc.
5. […] of Reagent L (NSB Buffer) was added to tubes 3 and 4.
6. […] of Reagent A (Anti-Calcitonin) was added to all tubes except tubes 1 & 2 (TC) and tube 3 & 4 (NSB). All tubes were vortexed, covered with parafilm or foil and incubated 44±6 hours at 2-8° C.
7. […] of 125.vertline.Calcitonin (Reagent B) was added to all tubes. All tubes were vortexed, covered with parafilm or foil and incubated 22±3 hours at 2-8° C.
8. Reagent C (Anti-Goat Precipitant) was mixed gently but thoroughly by inverting the vial several times before use. 1 mL Reagent C was added to all tubes except 1 and 2 (TC). Tubes were vortexed and incubated 20 minutes at room temperature.
9. All tubes were centrifuged at 1300-1500×g for 15 minutes at 2-8° C.
10. Supernatant was decanted immediately after centrifugation taking care to leave the precipitate intact.
11. Tubes were counted 4 minutes or longer.
Secretion Ratio: Stimulation of calcitonin secretion is expressed as a ratio of secretion activity in the presence of test compound compared to the secretion activity in the untreated control: [formula]
Secretion Activity: Compounds were designated active if Secretion Ratio>2.5.

Assay [2] concerns Phosphodiesterase IV (PDE-IV) isolated from human U937 cells. Kind of assay: Inhibition of Phosphodiesterase IV (PDE-IV) Isolated from Human U937 Cells. The format is biochemical. Particulars: for IC50: linear regression of percent inhibition data bracketing 50% inhibition; for % Inhibition of PDE IV (normalized to rolipram): 1 μM [3H]-cAMP substrate.
For assay [3], the system named is promoter region of the human calcitonin gene (C1-3 reporter cells, TT human thyroid carcinoma). Kind of assay: Calcitonin/Luciferase Reporter Gene Expression Assay (transcription activation ratio). The format is cell-based. Particulars: C13, 12 h, C1-3 cells, active if TAR>1.5, read-out: TAR (transcription activation ratio, luciferase activity with test compound vs untreated control).

Assay [4] relates to Ovarietomy Induced Osteopenia in Rats. The experiment in a line: Ovarietomy Induced Osteopenia in Rats (trabecular BMD). The format is in vivo. Particulars: Rattus norvegicus, 672 h; 30 mg/kg/day, ip; 4 weeks; n=8; * p < 0.005 vs. vehicle value (Examples 6, 12, 18); read-out: Percent Protection (trabecular BMD).

Regarding `CCCCn1c(=O)c2c(ncn2S(C)(=O)=O)n(CCCC)c1=O` [Example 1, 1,3-Dibutyl-7-methanesulfonyl-3,7-dihydro-purine-2,6-dione], the fold induction at 30 µM in assay [1] worked out at 4.65. Besides, in assay [2], the midpoint of inhibition, the IC50, lay at 25.2 µM and the “% Inhibition of PDE IV (normalized to rolipram)” value is reported as 16%. Also, the fold induction at 30 µM in assay [3] is 2.1.

On to `CCCCn1c(=O)c2c(ncn2S(=O)(=O)CCCC)n(CCCC)c1=O` [Example 2, 7-(Butane-1-sulfonyl)-1,3-dibutyl-3,7-dihydro-purine-2,6-dione], for which the results for the fold induction at 30 µM in assay [1] and in assay [3] were 4.65 and 2.2, respectively. Besides, the inhibition in vivo at 30 mg/kg in assay [4] was found to be 23%. The “% Inhibition of PDE IV (normalized to rolipram)” value in assay [2] is recorded as 97%.

Regarding `CCCCn1c(=O)c2c(ncn2S(=O)(=O)c2cccc([N+](=O)[O-])c2)n(CCCC)c1=O` [Example 3, 1,3-Dibutyl-7-(3-nitro-benzenesulfonyl)-3,7-dihydro-purine-2,6-dione], the results for the fold induction at 30 µM in assay [1] and in assay [3] were 1.65 and 2, respectively. Also, the inhibition in vivo at 30 mg/kg in assay [4] was found to be 30%. The “% Inhibition of PDE IV (normalized to rolipram)” value in assay [2] was 87%.

Turning to `CCCCn1c(=O)c2c(ncn2S(=O)(=O)c2ccc(OC)c(OC)c2)n(CCCC)c1=O` [Example 4, 1,3-Dibutyl-7-(3,4-dimethoxy-benzenesulfonyl)-3,7-dihydro-purine-2,6-dione], in assay [1], the fold induction at 30 µM came to 4.7. Also, the inhibition in vivo at 30 mg/kg in assay [4] stood at 35%. In assay [2], half-maximal inhibition (IC50) required 1.2 µM and the “% Inhibition of PDE IV (normalized to rolipram)” value came out at 41%. In addition, the fold induction at 30 µM in assay [3] was found to be 2.5.

For `CCCCn1c(=O)c2c(ncn2S(=O)(=O)c2cccs2)n(CCCC)c1=O` [Example 5, 1,3-Dibutyl-7-(thiophene-2-sulfonyl)-3,7-dihydro-purine-2,6-dione], the “% Inhibition of PDE IV (normalized to rolipram)” value in assay [2] was found to be 52%. The fold induction at 30 µM in assay [3] was 1.8.

As for `CCCCn1c(=O)c2c(ncn2S(=O)(=O)CCCCl)n(CCCC)c1=O` [Example 6, 1,3-Dibutyl-7-(3-chloro-propane-1-sulfonyl)-3,7-dihydro-purine-2,6-dione], the fold induction at 30 µM in assay [1] turned out to be 3.6. In addition, the inhibition in vivo at 30 mg/kg in assay [4] came to 47%. Further, in assay [2], the midpoint of inhibition, the IC50, lay at 4.1 µM and the “% Inhibition of PDE IV (normalized to rolipram)” value is on record as 44%. For the same molecule, the fold induction at 30 µM in assay [3] was found to be 2.

On to `CCCCn1c(=O)c2c(ncn2S(=O)(=O)c2cccc3ccccc23)n(CCCC)c1=O` [Example 7, 1,3-Dibutyl-7-(naphthalene-1-sulfonyl)-3,7-dihydro-purine-2,6-dione], for which the fold induction at 30 µM came to 4.5 in assay [1] and 2.5 in assay [3]. Besides, the inhibition in vivo at 30 mg/kg in assay [4] came to 37%. Besides, in assay [2], the “% Inhibition of PDE IV (normalized to rolipram)” value stood at 83%.

For the molecule `CCCCn1c(=O)c2c(ncn2S(=O)(=O)c2ccc(NO)cc2)n(CCCC)c1=O` [Example 8, 1,3-Dibutyl-7-(4-hydroxyamino-benzenesulfonyl)-3,7-dihydro-purine-2,6-dione], the fold induction at 30 µM amounted to 5.4 in assay [1] and 2 in assay [3]. Further, the inhibition in vivo at 30 mg/kg in assay [4] is -2%. The “% Inhibition of PDE IV (normalized to rolipram)” value in assay [2] came to 82%.

For `CCCCn1c(=O)c2c(ncn2S(=O)(=O)Cc2ccccc2)n(CCCC)c1=O` [Example 9, 1,3-Dibutyl-7-phenylmethanesulfonyl-3,7-dihydro-purine-2,6-dione], the fold induction at 30 µM in assay [1] stood at 5.1; in assay [3], 2.3. In addition, the inhibition in vivo at 30 mg/kg in assay [4] stood at 25%. Further, the IC50 in assay [2] was 3.2 µM. Further, the “% Inhibition of PDE IV (normalized to rolipram)” value in assay [2] was found to be 93%.

Turning to `CCCCn1c(=O)c2c(ncn2S(=O)(=O)C[C@@]23CC[C@@H](CC2=O)C3(C)C)n(CCCC)c1=O` [Example 10, 1,3-Dibutyl-7-(7,7-dimethyl-2-oxo-bicyclo[2.2. 1]hept-1-ylmethanesulfonyl)-3,7-dihydro-purine-2,6-dione], the fold induction at 30 µM in assay [1] was 4.5; in assay [3], 2. In addition, the inhibition in vivo at 30 mg/kg in assay [4] was -10%. Also, the “% Inhibition of PDE IV (normalized to rolipram)” value in assay [2] is reported as 89%.

As for `CCCCn1c(=O)c2c(ncn2S(=O)(=O)c2ccc(N(OC(C)=O)C(C)=O)cc2)n(CCCC)c1=O` [Example 11, N-Acetoxy-N-[4-(1,3-dibutyl-2,6-dioxo-1,2,3,6-tetrahydro-purine-7-sulfonyl)-phenyl]-acetamide], the fold induction at 30 µM in assay [1] was 4.3; in assay [3], 2.1.

On to `CCCCn1c(=O)c2c(ncn2S(=O)(=O)c2c(C)cc(C)cc2C)n(CCCC)c1=O` [Example 12, 1,3-Dibutyl-7-(2,4,6-trimethyl-benzenesulfonyl)-3,7-dihydro-purine-2,6-dione], for which the fold induction at 30 µM turned out to be 4.04 in assay [1] and 2.1 in assay [3]. Further, the inhibition in vivo at 30 mg/kg in assay [4] stood at 50%. In assay [2], this molecule returned an IC50 of 6 µM. The “% Inhibition of PDE IV (normalized to rolipram)” value in assay [2] came to 42%.

With `CCCCn1c(=O)c2c(ncn2S(=O)(=O)c2ccc(C(C)(C)C)cc2)n(CCCC)c1=O` [Example 13, 1,3-Dibutyl-7-(4-tert-butyl-benzenesulfonyl)-3,7-dihydro-purine-2,6-dione], the fold induction at 30 µM in assay [1] is 5.1; in assay [3] it was 1.8. Further, the inhibition in vivo at 30 mg/kg in assay [4] is 13%. The “% Inhibition of PDE IV (normalized to rolipram)” value in assay [2] came to 66%.

As for `CCCCn1c(=O)c2c(ncn2S(=O)(=O)c2c(C)noc2C)n(CCCC)c1=O` [Example 14, 1,3-Dibutyl-7-(3,5-dimethyl-isoxazole-4-sulfonyl)-3,7-dihydro-purine-2,6-dione], the fold induction at 30 µM in assay [1] was 3.3; in assay [3] it was 2.5. Also, the “% Inhibition of PDE IV (normalized to rolipram)” value in assay [2] was found to be 20%.

Regarding `CCCCn1c(=O)n(CC=C(C)C)c(=O)c2c1ncn2S(=O)(=O)c1ccc(C)cc1` [Example 15, 3-Butyl-1-(3-methyl-but-2-enyl)-7-(toluene-4-sulfonyl)-3,7-dihydro-purine-2,6-dione], the fold induction at 30 µM in assay [1] turned out to be 3.74; in assay [3], 2.1. For the same molecule, in assay [4], the inhibition in vivo at 30 mg/kg amounted to 15%. In addition, inhibition in assay [2] was half-maximal at 5.2 µM (IC50). In addition, the “% Inhibition of PDE IV (normalized to rolipram)” value in assay [2] worked out at 35%.

As for `CCCCn1c(=O)n(CC)c(=O)c2c1ncn2S(=O)(=O)c1ccc(C)cc1` [Example 16, 3-Butyl-1-ethyl-7-(toluene-4-sulfonyl)-3,7-dihydro-purine-2,6-dione], in assay [2], the IC50 stood at 6 µM and the “% Inhibition of PDE IV (normalized to rolipram)” value is recorded as 38%. The fold induction at 30 µM in assay [3] turned out to be 2.1.

As for `CCCCn1c(=O)n(CC=C(C)C)c(=O)c2c1ncn2S(=O)(=O)c1ccc(OC)c(OC)c1` [Example 17, 3-Butyl-7-(3,4-dimethoxy-benzenesulfonyl)-1-(3-methyl-but-2-enyl)-3,7-dihydro-purine-2,6-dione], the fold induction at 30 µM in assay [1] is 3.66; in assay [3] it was 2.8. Also, the “% Inhibition of PDE IV (normalized to rolipram)” value in assay [2] was found to be 24%.

Consider `CCCCn1c(=O)c2c(ncn2S(=O)(=O)c2cc(C)c(Cl)cc2C)n(CCCC)c1=O` [Example 18, 1,3-Dibutyl-7-(4-chloro-2,5-dimethyl-benzenesulfonyl)-3,7-dihydro-purine-2,6-dione], for which, in assay [1], the fold induction at 30 µM amounted to 5.32. Also, in assay [4], the inhibition in vivo at 30 mg/kg came out at 52%. In assay [2], the IC50 is 23.3 µM and the “% Inhibition of PDE IV (normalized to rolipram)” value came to 37%. In addition, in assay [3], the fold induction at 30 µM stood at 2.5.

Regarding `CCCCn1c(=O)c2c(nc(C)n2S(=O)(=O)CCCCl)n(CCCC)c1=O` [Example 19, 1,3-Dibutyl-7-(3-chloro-propane-1-sulfonyl)-8-methyl-3,7-dihydro-purine-2,6-dione], the fold induction at 30 µM in assay [1] turned out to be 4.09; in assay [3], 1.7. For the same molecule, the “% Inhibition of PDE IV (normalized to rolipram)” value in assay [2] is 5%.

Regarding `CCCCn1c(=O)c2c(nc(C)n2S(=O)(=O)c2ccc(C)cc2)n(CCCC)c1=O` [Example 20, 1,3-Dibutyl-8-methyl-7-(toluene-4-sulfonyl)-3,7-dihydro-purine-2,6-dione], the values for the fold induction at 30 µM in assay [1] and in assay [3] were 3.23 and 2, respectively. In assay [2], the “% Inhibition of PDE IV (normalized to rolipram)” value came out at 58%.
